Data: patent publication US20250230193A1, “CYCLIC COMPOUND HAVING SELECTIVE KRAS INHIBITORY EFFECT ON HRAS AND NRAS” (CHUGAI SEIYAKU KABUSHIKI KAISHA, priority 2022, published 2025)

Tests used:
[1] = target: GDP-bound NRAS wild-type protein (Homo sapiens, UniProt P01111); assay: Binding to NRAS by surface plasmon resonance (SPR), Single Cycle Kinetics; conditions: SPR; for NRAS/KRAS (ratio of KD value with respect to NRAS to KD value with respect to KRAS): GDP-bound NRAS wild-type vs GDP-bound KRAS wild-type
[2] = target: GDP-bound HRAS wild-type protein (Homo sapiens, UniProt P01112); assay: Binding to HRAS by surface plasmon resonance (SPR), Single Cycle Kinetics; conditions: SPR; for HRAS/KRAS (ratio of KD value with respect to HRAS to KD value with respect to KRAS): GDP-bound HRAS wild-type vs GDP-bound KRAS wild-type
Sequence of GDP-bound HRAS wild-type protein (P01112 whole entry): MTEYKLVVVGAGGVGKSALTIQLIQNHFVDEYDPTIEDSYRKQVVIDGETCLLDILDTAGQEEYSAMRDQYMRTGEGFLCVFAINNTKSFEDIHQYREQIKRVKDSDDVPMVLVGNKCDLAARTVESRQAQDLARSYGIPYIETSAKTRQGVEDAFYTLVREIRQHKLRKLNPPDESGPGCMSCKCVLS

Sequence of GDP-bound NRAS wild-type protein (P01111 whole entry): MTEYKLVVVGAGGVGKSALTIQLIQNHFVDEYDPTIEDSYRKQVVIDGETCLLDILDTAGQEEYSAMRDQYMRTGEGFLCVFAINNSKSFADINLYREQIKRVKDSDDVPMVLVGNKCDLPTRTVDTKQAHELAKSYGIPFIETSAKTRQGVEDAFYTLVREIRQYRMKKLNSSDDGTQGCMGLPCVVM

SMILES	NRAS/KRAS (ratio of KD value with respect to GDP-bound NRAS wild-type protein to KD value with respect to KRAS) [1]	HRAS/KRAS (ratio of KD value with respect to GDP-bound HRAS wild-type protein to KD value with respect to KRAS) [2]	NRAS/KRAS (ratio of KD value with respect to NRAS to KD value with respect to KRAS) [1]	HRAS/KRAS (ratio of KD value with respect to HRAS to KD value with respect to KRAS) [2]
CCO[C@@H]1C[C@H]2C(=O)NC3(CCC3)C(=O)N(C)[C@@H](C3CCCC3)C(=O)N(C)[C@H](C(=O)N3CCOCC3)CC(=O)N(C)[C@@H](CC(C)C)C(=O)N[C@@H]([C@H](C)CC)C(=O)N(C)CC(=O)N(C)[C@H]3CCCCN(C3=O)[C@@H](Cc3ccc(C(F)(F)F)cc3)C(=O)N(C)CC(=O)N[C@@H](CCc3cc(F)c(C(F)(F)F)c(F)c3)C(=O)N2C1 [PP0806]	B (a compound having 3 or more and less than 10 is denoted as B)	B (a compound having 3 or more and less than 10 is denoted as B)		
CCO[C@@H]1C[C@H]2C(=O)NC3(CCC3)C(=O)N(C)[C@@H](C3CCCC3)C(=O)N(C)[C@H](C(=O)N3CCOCC3)CC(=O)N(C)[C@@H](CC(C)C)C(=O)N[C@@H](C3CC(F)(F)C3)C(=O)N(C)CC(=O)N(C)[C@H]3CCCCN(C3=O)[C@@H](Cc3ccc(C(F)(F)F)cc3)C(=O)N(C)CC(=O)N[C@@H](CCc3cc(F)c(C(F)(F)F)c(F)c3)C(=O)N2C1 [PP0807]	B (a compound having 3 or more and less than 10 is denoted as B)	B (a compound having 3 or more and less than 10 is denoted as B)		
CC[C@H](C)[C@@H]1NC(=O)[C@H](CC(C)C)N(C)C(=O)C[C@@H](C(=O)N2CCOCC2)N(C)C(=O)[C@H](C2CCCC2)N(C)C(=O)C2(CCC2)NC(=O)[C@]2(C)CCCN2C(=O)[C@H](CCc2cc(F)c(C(F)(F)F)c(F)c2)NC(=O)CN(C)C(=O)[C@H](Cc2ccc(C(F)(F)F)cc2)N2CCCC[C@@H](C2=O)N(C)C(=O)CN(C)C1=O [PP0808]	B (a compound having 3 or more and less than 10 is denoted as B)	B (a compound having 3 or more and less than 10 is denoted as B)		
CC[C@H](C)[C@@H]1NC(=O)[C@H](CC(C)C)N(C)C(=O)C[C@@H](C(=O)N2CCOCC2)N(C)C(=O)[C@H](C2CCCC2)N(C)C(=O)C2(CCC2)NC(=O)[C@@H]2C[C@@H](C(F)(F)F)CN2C(=O)[C@H](CCc2cc(F)c(C(F)(F)F)c(F)c2)NC(=O)CN(C)C(=O)[C@H](Cc2ccc(C(F)(F)F)cc2)N2CCCC[C@@H](C2=O)N(C)C(=O)CN(C)C1=O [PP0809]	B (a compound having 3 or more and less than 10 is denoted as B)	B (a compound having 3 or more and less than 10 is denoted as B)		
CC[C@H](C)[C@@H]1NC(=O)[C@H](CC(C)C)N(C)C(=O)C[C@@H](C(=O)N2CCOCC2)N(C)C(=O)[C@H](C2CCCC2)N(C)C(=O)C2(CCC2)NC(=O)[C@@H]2[C@H]3C[C@H]3CN2C(=O)[C@H](CCc2cc(F)c(C(F)(F)F)c(F)c2)NC(=O)CN(C)C(=O)[C@H](Cc2ccc(C(F)(F)F)cc2)N2CCCC[C@@H](C2=O)N(C)C(=O)CN(C)C1=O [PP0810]			B (a compound having 3 or more and less than 10 is denoted as B)	B (a compound having 3 or more and less than 10 is denoted as B)
CCO[C@@H]1C[C@H]2C(=O)NC3(CCC3)C(=O)N(C)[C@@H](C(CC)CC)C(=O)N(C)[C@H](C(=O)N3CCOCC3)CC(=O)N(C)[C@@H](CC(C)C)C(=O)N[C@@H]([C@@H](C)CC)C(=O)N(C)CC(=O)N(C)[C@H]3CCCCN(C3=O)[C@@H](Cc3ccc(C(F)(F)F)cc3)C(=O)N(C)CC(=O)N[C@@H](CCc3cc(F)c(C(F)(F)F)c(F)c3)C(=O)N2C1 [PP0811]			B (a compound having 3 or more and less than 10 is denoted as B)	B (a compound having 3 or more and less than 10 is denoted as B)
CCOC1CC2C(=O)NC3(CCC3)C(=O)N(C)C(C(C)CC)C(=O)N(C)[C@H](C(=O)N3CCOCC3)CC(=O)N(C)[C@@H](CC(C)C)C(=O)N[C@@H]([C@@H](C)CC)C(=O)N(C)CC(=O)N(C)[C@H]3CCCCN(C3=O)[C@@H](Cc3ccc(C(F)(F)F)cc3)C(=O)N(C)CC(=O)N[C@@H](CCc3cc(F)c(C(F)(F)F)c(F)c3)C(=O)N2C1 (some centres unmarked) [PP0812]			B (a compound having 3 or more and less than 10 is denoted as B)	B (a compound having 3 or more and less than 10 is denoted as B)
CCO[C@@H]1C[C@H]2C(=O)NC3(CCC3)C(=O)N(C)[C@@H](CC(F)F)C(=O)N(C)[C@H](C(=O)N3CCOCC3)CC(=O)N(C)[C@@H](CC(C)C)C(=O)N[C@@H]([C@@H](C)CC)C(=O)N(C)CC(=O)N(C)[C@H]3CCCCN(C3=O)[C@@H](Cc3ccc(C(F)(F)F)cc3)C(=O)N(C)CC(=O)N[C@@H](CCc3cc(F)c(C(F)(F)F)c(F)c3)C(=O)N2C1 [PP0813]			C (A compound having a KD ratio of 0.1 or more and less than 3 is denoted as C)	B (a compound having 3 or more and less than 10 is denoted as B)
CCO[C@@H]1C[C@H]2C(=O)NC3(CCC3)C(=O)N(C)[C@@H](C(C)(C)C)C(=O)N(C)[C@H](C(=O)N3CCOCC3)CC(=O)N(C)[C@@H](CC(C)C)C(=O)N[C@@H]([C@@H](C)CC)C(=O)N(C)CC(=O)N(C)[C@H]3CCCCN(C3=O)[C@@H](Cc3ccc(C(F)(F)F)cc3)C(=O)N(C)CC(=O)N[C@@H](CCc3cc(F)c(C(F)(F)F)c(F)c3)C(=O)N2C1 [PP0814]			B (a compound having 3 or more and less than 10 is denoted as B)	B (a compound having 3 or more and less than 10 is denoted as B)
CCO[C@@H]1C[C@H]2C(=O)NC3(CCC3)C(=O)N(C)[C@@H](C3CCCC3)C(=O)N(C)[C@H](C(=O)N3CCOCC3)CC(=O)N(C)[C@@H](CC(C)C)C(=O)N[C@@H]([C@H](C)CC)C(=O)N(C)CC(=O)N(C)[C@H]3CCCCCN(C3=O)[C@@H](Cc3ccc(C(F)(F)F)cc3)C(=O)N(C)CC(=O)N[C@@H](CCc3cc(F)c(C(F)(F)F)c(F)c3)C(=O)N2C1 [PP0815]			B (a compound having 3 or more and less than 10 is denoted as B)	B (a compound having 3 or more and less than 10 is denoted as B)
CCO[C@@H]1C[C@H]2C(=O)NC3(CCC3)C(=O)N(C)[C@@H](C3CCCC3)C(=O)N(C)[C@H](C(=O)N3CCOCC3)CC(=O)N(C)[C@@H](CC(C)C)C(=O)N[C@@H](C3CC(F)(F)C3)C(=O)N(C)CC(=O)N(C)[C@H]3CCCCCN(C3=O)[C@@H](Cc3ccc(C(F)(F)F)cc3)C(=O)N(C)CC(=O)N[C@@H](CCc3cc(F)c(C(F)(F)F)c(F)c3)C(=O)N2C1 [PP0816]			A (a compound having 10 or more and less than 20 is denoted as A)	B (a compound having 3 or more and less than 10 is denoted as B)
CC[C@H](C)[C@@H]1NC(=O)[C@H](CC(C)C)N(C)C(=O)C[C@@H](C(=O)N2CCOCC2)N(C)C(=O)[C@H](C2CCCC2)N(C)C(=O)C2(CCC2)NC(=O)[C@]2(C)CCCN2C(=O)[C@H](CCc2cc(F)c(C(F)(F)F)c(F)c2)NC(=O)CN(C)C(=O)[C@H](Cc2ccc(C(F)(F)F)cc2)N2CCCCC[C@@H](C2=O)N(C)C(=O)CN(C)C1=O [PP0817]			A (a compound having 10 or more and less than 20 is denoted as A)	B (a compound having 3 or more and less than 10 is denoted as B)
CC[C@H](C)[C@@H]1NC(=O)[C@H](CC(C)C)N(C)C(=O)C[C@@H](C(=O)N2CCOCC2)N(C)C(=O)[C@H](C2CCCC2)N(C)C(=O)C2(CCC2)NC(=O)[C@@H]2C[C@@H](C(F)(F)F)CN2C(=O)[C@H](CCc2cc(F)c(C(F)(F)F)c(F)c2)NC(=O)CN(C)C(=O)[C@H](Cc2ccc(C(F)(F)F)cc2)N2CCCCC[C@@H](C2=O)N(C)C(=O)CN(C)C1=O [PP0818]			B (a compound having 3 or more and less than 10 is denoted as B)	B (a compound having 3 or more and less than 10 is denoted as B)
CC[C@H](C)[C@@H]1NC(=O)[C@H](CC(C)C)N(C)C(=O)C[C@@H](C(=O)N2CCOCC2)N(C)C(=O)[C@H](C2CCCC2)N(C)C(=O)C2(CCC2)NC(=O)[C@@H]2[C@H]3C[C@H]3CN2C(=O)[C@H](CCc2cc(F)c(C(F)(F)F)c(F)c2)NC(=O)CN(C)C(=O)[C@H](Cc2ccc(C(F)(F)F)cc2)N2CCCCC[C@@H](C2=O)N(C)C(=O)CN(C)C1=O [PP0819]			A (a compound having 10 or more and less than 20 is denoted as A)	B (a compound having 3 or more and less than 10 is denoted as B)
CCO[C@@H]1C[C@H]2C(=O)NC3(CCC3)C(=O)N(C)[C@@H](C(CC)CC)C(=O)N(C)[C@H](C(=O)N3CCOCC3)CC(=O)N(C)[C@@H](CC(C)C)C(=O)N[C@@H]([C@@H](C)CC)C(=O)N(C)CC(=O)N(C)[C@H]3CCCCCN(C3=O)[C@@H](Cc3ccc(C(F)(F)F)cc3)C(=O)N(C)CC(=O)N[C@@H](CCc3cc(F)c(C(F)(F)F)c(F)c3)C(=O)N2C1 [PP0820]			A (a compound having 10 or more and less than 20 is denoted as A)	B (a compound having 3 or more and less than 10 is denoted as B)
CCO[C@@H]1C[C@H]2C(=O)NC3(CCC3)C(=O)N(C)[C@@H]([C@H](C)CC)C(=O)N(C)[C@H](C(=O)N3CCOCC3)CC(=O)N(C)[C@@H](CC(C)C)C(=O)N[C@@H]([C@@H](C)CC)C(=O)N(C)CC(=O)N(C)[C@H]3CCCCCN(C3=O)[C@@H](Cc3ccc(C(F)(F)F)cc3)C(=O)N(C)CC(=O)N[C@@H](CCc3cc(F)c(C(F)(F)F)c(F)c3)C(=O)N2C1 [PP0821]			A (a compound having 10 or more and less than 20 is denoted as A)	B (a compound having 3 or more and less than 10 is denoted as B)
